Key:
[1] = test system: testicular cells; experiment: Test Example 2: testosterone/dihydrotestosterone production in primary testicular cells; format: cell-based, rat; settings: 0.5 mM, 1 h pretreatment, then LH or dibutyryl cAMP, 90 min
Description: Dispersed testicular cells were prepared from the testis in mature rats. The testicular cells isolated were cultured for 18 hours in DMEM/Ham's F-12 medium (manufactured by FUJIFILM Wako Pure Chemical Corporation) for culture of testicular stromal cells, Leydig cell. Cells were pretreated with the hot water extract of Cordyceps militaris derived from Samia cynthia ricini (diluted to 1:500), or cordycepin known as one of the physiological activity substances of a vegetative wasp (0.5 mM) for 1 hour and then stimulated with a luteinizing hormone (LH: 10 and 100 ng/mL) or dibutyryl cAMP (0.1 and 0.5 mM). Ninety minutes after the stimulation, the media was collected and the content of testosterone was quantified. In order to confirm the reproducibility, the results of the reexamination performed with the same test content are shown in FIG. 13. In the reexamnination, three independent experiments were performed, and in addition to testosterone, dihydrotestosterone was also quantified.

[2] = test system: castrated rat; experiment: Test Example 1-1: male menopausal model rat (castrated, testosterone propionate-supplemented); format: in vivo
Description: As the human menopause model, rats were castrated (orchiectomy). An eight-week-old male rat was subjected to orchiectomy under isoflurane anesthesia, and the castrated rat was orally administered the hot water extract of Cordyceps militaris derived from Samia cynthia ricini (RK: 20 mg/0.2 mL distilled water/rat: average body weight at the start of administration: 317 g) together with testosterone propionate (TP: 1 mg/kg, every other day administration) continuously for 12 days. Animals were sacrificed the day after the final treatment, and then the serum, testes, prostate, and seminal vesicle glands were isolated. Some animals to which 0.2 mL distilled water was administered was used as control group.
After the blood collection, the concentrations of testosterone and dihydrotestosterone in the serum were evaluated by the following measurement kit.
The results of the blood testosterone values measured by an EIA kit (manufactured by Cayman) and the results of blood dihydrotestosterone values measured by an ELISA kit (manufactured by Abnova) are shown in FIGS. 1 and 2, respectively.
After the autopsy, changes in the weight of the prostate and the seminal vesicle were evaluated. The change in the weight of the prostate is shown in FIG. 5, and change in the weight of the seminal vesicle is shown in FIG. 6.

[3] = test system: prostatic hypertrophy model rat; experiment: Test Example 1-2: prostatic hypertrophy model rat (long-term excessive TP); format: in vivo, Wistar rat; settings: TP 3 mg/kg, 1 month
Description: In a rat model of menopause Test Example 1-1, since the increase in the prostatic weight by testosterone propionate (TP) was inhibited by the hot water extract of Cordyceps militaris derived from Samia cynthia ricini (RK), it was assumed that RK has inhibitory effects on prostatic hypertrophy. The effect of long-term administration of RK was, therefore, examined using a rat model of prostatic hypertrophy in which an excessive amount of TP is administered to mature rats for a long period of time.
An eight-week-old male Wistar rat was orally administered RK (10 mg/0.2 mL distilled water/rat or 20 mg/0.2 mL distilled water/rat: average body weight at the start of administration: 268 g) together with 3 mg/kg of TP continuously for 1 month. Animals were sacrificed the day after the final treatment, and then the serum, testes, prostate, and seminal vesicle glands were isolated. Some animals to which 0.2 mL distilled water was administered was used as control group.
After the blood collection, the serum levels of testosterone and dihydrotestosterone value were evaluated by the following measurement kit.
The results of the blood testosterone values measured by EIA kit (manufactured by Cayman) and the results of dihydrotestosterone values measured by Elisa kit (manufactured by Abnova) are shown in FIGS. 8 and 9, respectively.
After the necropsy, changes in prostate weight and body weight were evaluated.

SMILES	stimulatory action on testosterone/dihydrotestosterone levels [1]	body weight ([2]; TP administered to castrated animals, FIG. 7)	weight of the prostate ([2]; TP group (1 mg/kg every other day) vs castrated, FIG. 5)	weight of the seminal vesicle ([2]; TP group (1 mg/kg every other day) vs castrated, FIG. 6)	serum levels of testosterone ([3]; FIG. 8)	serum levels of dihydrotestosterone ([3]; FIG. 9)	prostatic weight ([3]; FIG. 10)
Nc1ncnc2c1ncn2[C@@H]1O[C@H](CO)C[C@H]1O [Cordycepin, cordycepin]	No stimulatory action	–	–	–	–	–	–
CCC(=O)O[C@H]1CC[C@H]2[C@@H]3CCC4=CC(=O)CC[C@]4(C)[C@H]3CC[C@]12C [testosterone propionate]	–	tended to increase	increased	increased	increase	increase	increased

Reference: US20260014219A1, “COMPOSITION FOR INHIBITING REDUCTION OF TESTOSTERONE AND/OR DIHYDROTESTOSTERONE” (priority 2019, published 2026)
